Measurements from US20230265104A1, “NOVEL HETEROCYCLIC COMPOUNDS” (PRISM BIOLAB CO., LTD., priority 2020, published 2023).

Test system: PANC-1 (human pancreatic cancer-derived cell line)
Assay: MTS assay on Panc-1 (human pancreas carcinoma cell line)
Assay type: cell-based
Conditions: 144 h; for IC50: PANC-1, MTS method, cell survival 6 days after exposure, 4-parameter logistic fit; for inhibition at 10 µM: read-out: Growth inhibition (%) 10 μM; for inhibition at 0.3125 µM: read-out: Growth inhibition (%) 0.3125 μM; for inhibition at 30 µM: read-out: Growth inhibition (%) 30 μM; for inhibition at 1 µM: read-out: Growth inhibition (%) 1 μM
Method in brief: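 Viability measured by MTS 6 days after treating human pancreatic carcinoma PANC-1 cells with compound serially diluted 2-fold in DMSO; absorbance 492–630 nm normalized to solvent control. Triplicate measurements averaged and fitted to a 4-parameter logistic curve.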

Row | SMILES | IC50 [nM] | inhibition at 10 µM (PANC-1, MTS, 6 days) [%] | further results
1 | CC(C)C[C@H]1ON(C(=O)/C=C/[C@H]2CCCN2C)[C@H]2CN(CCC(N)=O)C(=O)[C@H](CC(C)C)N2C1=O [ID-43, 3-((3R,6S,9aS)-3,6-diisobutyl-1-((E)-3-((R)-1-methylpyrrolidin-2-yl)acryloyl)-4,7-dioxohexahydropyrazino[2,1-c][1,2,4]oxadiazin-8 (1H)-yl)propanamide] | 9400 | 78.5 | 
2 | CC(C)C[C@H]1ON(C(=O)/C=C/c2nc(C#CCCCCO)cs2)[C@H]2CN([C@H]3CCN(CCCCO)C3)C(=O)[C@H](CC(C)(C)C)N2C1=O [ID-9, (3R,6S,9aS)-8-((S)-1-(4-hydroxybutyl)pyrrolidin-3-yl)-1-((E)-3-(4-(6-hydroxyhex-1-yn-1-yl)thiazol-2-yl)acryloyl)-3-isobutyl-6-neopentyltetrahydropyrazino[2,1-c][1,2,4]oxadiazine-4,7(3H,6H)-dione] | 99 |  | 
3 | CC(C)C[C@H]1ON(C(=O)/C=C\c2ccccc2)[C@H]2CN(C3CCN(C)CC3)C(=O)[C@H](CC(C)C)N2C1=O [ID-38, (3R,6S,9aS)-3,6-diisobutyl-8-(1-methylpiperidin-4-yl)-1-((Z)-3-phenylacryloyl)tetrahydropyrazino[2,1-c] [1,2,4] oxadiazine-4,7 (3H, 6H)-dione] | 8000 | 82.6 | 
4 | CC(C)C[C@H]1ON(C(=O)/C(Cl)=C/c2ccccn2)[C@H]2CN(C3CCN(C)CC3)C(=O)[C@H](CC(C)C)N2C1=O [ID-47, (3R,6S,9aS)-1-((Z)-2-chloro-3-(pyridin-2-yl)acryloyl)-3,6-diisobutyl-8-(1-methylpiperidin-4-yl)tetrahydropyrazino[2,1-c][1,2,4]oxadiazine-4,7(3H,6H)-dione] | 10000 | 66.6 | 
5 | C#Cc1cnc(/C=C/C(=O)N2O[C@H](CC(C)C)C(=O)N3[C@@H]2CN([C@H]2CCN(CCCCO)C2)C(=O)[C@@H]3CC(C)(C)C)s1 [ID-89, (3R,6S,9aS)-1-((E)-3-(5-ethynylthiazol-2-yl)acryloyl)-8-((S)-1-(4-hydroxybutyl)pyrrolidin-3-yl)-3-isobutyl-6-neopentyltetrahydropyrazino[2,1-c][1,2,4]oxadiazine-4,7(3H,6H)-dione] | 180 |  | inhibition at 0.3125 µM (PANC-1, MTS, 6 days): 100%
6 | CC(=O)N1CCC(N2C[C@@H]3N(C(=O)/C=C/c4nc5ccccc5s4)O[C@H](CC(C)C)C(=O)N3[C@@H](CC(C)C)C2=O)CC1 [ID-45, (3R,6S,9aS)-8-(1-acetylpiperidin-4-yl)-1-((E)-3-(benzo[d]thiazol-2-yl)acryloyl)-3,6-diisobutyltetrahydropyrazino[2,1-c][1,2,4]oxadiazine-4,7(3H,6H)-dione] | 810 | 101 | 
7 | CC(C)C[C@H]1ON(C(=O)/C=C/c2nc3cccnc3s2)[C@H]2CN(CCC(N)=O)C(=O)[C@H](CC(C)C)N2C1=O [ID-32, 3-((3R,6S,9aS)-3,6-diisobutyl-4,7-dioxo-1-((E)-3-(thiazolo[5,4-b]pyridin-2-yl)acryloyl)hexahydropyrazino[2,1-c][1,2,4]oxadiazin-8(1H)-yl)propanamide] | 620 | 101 | 
8 | CC(C)C[C@H]1ON(C(=O)/C=C/c2nc(C#CCCCCO)cs2)[C@H]2CN([C@@H]3CCN(CCCCO)C3)C(=O)[C@H](CC(C)(C)C)N2C1=O [ID-11, (3R,6S,9aS)-8-((R)-1-(4-hydroxybutyl)pyrrolidin-3-yl)-1-((E)-3-(4-(6-hydroxyhex-1-yn-1-yl)thiazol-2-yl)acryloyl)-3-isobutyl-6-neopentyltetrahydropyrazino[2,1-c][1,2,4]oxadiazine-4,7(3H,6H)-dione] | 140 |  | 
9 | CC(C)C[C@@H]1ON(C(=O)/C=C/c2nc3ccccc3s2)[C@@H]2CN([C@@H]3CCN(CCCCO)C3)C(=O)[C@H](CC(C)(C)C)N2C1=O [ID-95, (3S,6S,9aR)-1-((E)-3-(benzo[d]thiazol-2-yl)acryloyl)-8-((R)-1-(4-hydroxybutyl)pyrrolidin-3-yl)-3-isobutyl-6-neopentyltetrahydropyrazino[2,1-c][1,2,4]oxadiazine-4,7(3H,6H)-dione] | 1400 |  | 
10 | CC(C)C[C@H]1ON(C(=O)/C=C/c2ccccn2)[C@H]2CN(C3CCCN(C)CC3)C(=O)[C@H](CC(C)C)N2C1=O (stereo partly drawn) [ID-67, (3R,6S,9aS)-3,6-diisobutyl-8-(1-methylazepan-4-yl)-1-((E)-3-(pyridin-2-yl)acryloyl)tetrahydropyrazino[2,1-c][1,2,4]oxadiazine-4,7(3H,6H)-dione] | 3300 | 100 | 
11 | CONC(=O)CCN1C[C@@H]2N(C(=O)/C=C/c3ccccn3)O[C@H](CC(C)C)C(=O)N2[C@@H](CC(C)C)C1=O [ID-28, 3-((3R,6S,9aS)-3,6-diisobutyl-4,7-dioxo-1-((E)-3-(pyridin-2-yl)acryloyl)hexahydropyrazino[2,1-c][1,2,4]oxadiazin-8(1H)-yl)—N-methoxypropanamide] | 16200 |  | inhibition at 30 µM (PANC-1, MTS, 6 days): 96.2%
12 | CC(C)C[C@H]1ON(C(=O)/C=C/c2nc3ccccc3s2)[C@H]2CN(C3CCOCC3)C(=O)[C@H](CC(C)C)N2C1=O [ID-64, (3R,6S,9aS)-1-((E)-3-(benzo[d]thiazol-2-yl)acryloyl)-3,6-diisobutyl-8-(tetrahydro-2H-pyran-4-yl)tetrahydropyrazino[2,1-c][1,2,4]oxadiazine-4,7(3H,6H)-dione] | 880 |  | 
13 | CC(C)C[C@H]1ON(C(=O)/C=C/c2nc(C#CCOCCO)cs2)[C@H]2CN(C3CCN(C(C)C)CC3)C(=O)[C@H](CC(C)(C)C)N2C1=O [ID-97, (3R,6S,9aS)-1-((E)-3-(4-(3-(2-hydroxyethoxy)prop-1-yn-1-yl)thiazol-2-yl)acryloyl)-3-isobutyl-8-(1-isopropylpiperidin-4-yl)-6-neopentyltetrahydropyrazino[2,1-c][1,2,4]oxadiazine-4,7 (3H, 6H)-dione] | 150 |  | inhibition at 0.15625 µM (PANC-1, MTS, 6 days, 0.15625 μM, read-out: Growth inhibition (%) 0.15625 μM): 51%
14 | CC(C)C[C@H]1ON(C(=O)/C=C/c2csc(N3CCOCC3)n2)[C@H]2CN(C3CCN(C)CC3)C(=O)[C@H](CC(C)C)N2C1=O [ID-56, (3R,6S,9aS)-3,6-diisobutyl-8-(1-methylpiperidin-4-yl)-1-((E)-3-(2-morpholinothiazol-4-yl)acryloyl)tetrahydropyrazino[2,1-c][1,2,4]oxadiazine-4,7 (3H, 6H)-dione] |  | 95.3 | 
15 | CC(C)(C)C[C@H]1C(=O)N([C@@H]2CCN(CCCCO)C2)C[C@@H]2N(C(=O)/C=C/c3cnc4ccccc4n3)O[C@H](CC3CCCCC3)C(=O)N21 [ID-90, (3R, 6S, 9aS)-3-(cyclohexylmethyl)-8-((R)-1-(4-hydroxybutyl)pyrrolidin-3-yl)-6-neopentyl-1-((E)-3-(quinoxalin-2-yl)acryloyl)tetrahydropyrazino[2,1-c][1,2,4]oxadiazine-4,7(3H,6H)-dione] | 210 |  | inhibition at 0.3125 µM (PANC-1, MTS, 6 days): 66%; inhibition at 1 µM (PANC-1, MTS, 6 days): 99%
16 | CC(C)(C)C[C@H]1C(=O)N(CC2CCNCC2)C[C@@H]2N(C(=O)/C=C/c3cnc4ccccc4n3)O[C@H](CC3CCCCC3)C(=O)N21 [ID-26, (3R,6S,9aS)-3-(cyclohexylmethyl)-6-neopentyl-8-(piperidin-4-ylmethyl)-1-((E)-3-(quinoxalin-2-yl)acryloyl)tetrahydropyrazino[2,1-c][1,2,4]oxadiazine-4,7(3H,6H)-dione] |  |  | inhibition at 0.625 µM (PANC-1, MTS, 6 days, 0.625 μM, read-out: Growth inhibition (%) 0.625 μM): 4.2%; inhibition at 1 µM (PANC-1, MTS, 6 days): 96.1%
17 | CC(C)C[C@H]1CN(CCCN(C)C2CCN(C)CC2)C[C@@H]2N(C(=O)/C=C/c3ccccn3)O[C@H](CC(C)C)C(=O)N12 [ID-35, (3R,6S,9aS)-3,6-diisobutyl-8-(3-(methyl(1-methylpiperidin-4-yl)amino)propyl)-1-((E)-3-(pyridin-2-yl)acryloyl)hexahydropyrazino[2,1-c][1,2,4]oxadiazin-4(3H)-one] | 5000 | 99 | 
18 | CC(C)C[C@H]1ON(C(=O)/C=C/c2nc(C#N)cs2)[C@H]2CN(C3CCN(C)CC3)C(=O)[C@H](CC(C)C)N2C1=O [ID-3, 2-((E)-3-((3R, 6S, 9aS)-3,6-diisobutyl-8-(1-methylpiperidin-4-yl)-4,7-dioxohexahydropyrazino[2,1-c] [1,2,4]oxadiazin-1(6H)-yl)-3-oxoprop-1-en-1-yl)thiazole-4-carbonitrile] | 340 |  | 
19 | CC(C)C[C@H]1ON(C(=O)/C=C/c2nc3ccccc3o2)[C@H]2CN(C3CCN(C)CC3)C(=O)[C@H](CC(C)C)N2C1=O [ID-46, (3R, 6S, 9aS)-1-((E)-3-(benzo[d]oxazol-2-yl)acryloyl)-3,6-diisobutyl-8-(1-methylpiperidin-4-yl)tetrahydropyrazino[2,1-c][1,2,4]oxadiazine-4,7(3H,6H)-dione] | 1400 | 99.1 | 
20 | CC(C)C[C@H]1ON(C(=O)/C=C/c2nc3ccccc3s2)[C@H]2CN(CCC(N)=O)C(=O)[C@H](CC(C)C)N2C1=O [ID-23, 3-((3R,6S,9aS)-1-((E)-3-(benzo[d]thiazol-2-yl)acryloyl)-3,6-diisobutyl-4,7-dioxohexahydropyrazino[2,1-c][1,2,4]oxadiazin-8(1H)-yl)propanamide] | 770 |  | inhibition at 30 µM (PANC-1, MTS, 6 days): 102%
21 | CC(C)C[C@H]1ON(C(=O)/C=C/c2ccccc2)[C@H]2CN(C3CCN(C)CC3)C(=O)[C@H](CC(C)C)N2C1=O [ID-39, (3R,6S,9aS)-1-cinnamoyl-3,6-diisobutyl-8-(1-methylpiperidin-4-yl)tetrahydropyrazino[2,1-c][1,2,4]oxadiazine-4,7 (3H, 6H)-dione] | 8900 | 80.8 | 
